Test [1] in a line: DRUGMATRIX: Leukotriene, BLT (LTB4) radioligand binding (ligand: [3H]LTB4). The test is classed as cell membranes, Membrane. Conditions: u-937; Not Active = under 50% inhibition at 10 µM.
A short description of test [2]: DRUGMATRIX: GABAA, Flunitrazepam, Central radioligand binding (ligand: [3H] Flunitrazepam). The test is classed as cell membranes, Rattus norvegicus, Wistar, Brain, Membrane. Conditions: Not Active = under 50% inhibition at 10 µM.
Test [3] addresses C-C chemokine receptor type 5 (Homo sapiens, UniProt P51681). The class given is cell membranes, Membrane. To be noted: hek293.
The nature of test [4]: DRUGMATRIX: Glutamate, AMPA radioligand binding (ligand: [3H] AMPA). The class given is cell membranes, Rattus norvegicus, Wistar, Cerebral cortex, Membrane. To be noted: Not Active = under 50% inhibition at 10 µM.
In a further test the target is T1, D(4) dopamine receptor (Homo sapiens, UniProt P21917).
T1 sequence (P21917 whole entry): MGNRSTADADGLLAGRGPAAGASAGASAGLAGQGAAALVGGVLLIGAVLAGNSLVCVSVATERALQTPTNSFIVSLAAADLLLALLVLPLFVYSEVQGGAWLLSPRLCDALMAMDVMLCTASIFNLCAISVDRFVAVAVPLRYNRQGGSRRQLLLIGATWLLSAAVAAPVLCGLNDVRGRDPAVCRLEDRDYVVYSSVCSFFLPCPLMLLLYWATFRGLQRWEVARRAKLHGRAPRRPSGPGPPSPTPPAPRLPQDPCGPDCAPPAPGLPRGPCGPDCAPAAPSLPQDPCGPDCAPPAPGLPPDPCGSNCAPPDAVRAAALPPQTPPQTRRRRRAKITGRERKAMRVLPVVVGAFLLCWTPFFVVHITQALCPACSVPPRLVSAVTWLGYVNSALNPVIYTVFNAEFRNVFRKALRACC
The experiment in a line: DRUGMATRIX: Dopamine D4.2 radioligand binding (ligand: [3H] Spiperone). Conditions: cho-k1; Not Active = under 50% inhibition at 10 µM. The class given is cell membranes, CHO-K1, Membrane.

In another test the target is Estrogen receptor beta (Homo sapiens, UniProt Q92731). To be noted: sf9. Also: in other assays of this panel Not Active means under 50% inhibition at 10 µM.
Sequence of Estrogen receptor beta (Q92731 whole entry): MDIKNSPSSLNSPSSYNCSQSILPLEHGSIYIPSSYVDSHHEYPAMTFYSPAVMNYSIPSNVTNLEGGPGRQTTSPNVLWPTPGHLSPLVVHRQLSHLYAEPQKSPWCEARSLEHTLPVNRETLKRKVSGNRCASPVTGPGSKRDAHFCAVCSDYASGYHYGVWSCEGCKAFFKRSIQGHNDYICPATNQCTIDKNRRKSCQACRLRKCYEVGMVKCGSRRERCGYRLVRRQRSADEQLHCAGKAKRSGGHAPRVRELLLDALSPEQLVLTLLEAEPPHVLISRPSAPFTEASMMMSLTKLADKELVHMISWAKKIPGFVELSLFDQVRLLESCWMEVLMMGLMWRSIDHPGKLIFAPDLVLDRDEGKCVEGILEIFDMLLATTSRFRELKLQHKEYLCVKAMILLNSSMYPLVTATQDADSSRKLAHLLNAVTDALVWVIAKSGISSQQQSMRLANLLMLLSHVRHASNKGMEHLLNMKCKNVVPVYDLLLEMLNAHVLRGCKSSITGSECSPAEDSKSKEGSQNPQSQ
Test [5] has as its target Sodium-dependent noradrenaline transporter (Homo sapiens, UniProt P23975). In words: DRUGMATRIX: Norepinephrine Transporter radioligand binding (ligand: [125I] RTI-55). Conditions: Not Active = under 50% inhibition at 10 µM; for Ki: read-out: Ki. The class given is cell membranes, MDCK, Membrane.

Sequence of Sodium-dependent noradrenaline transporter (P23975 whole entry): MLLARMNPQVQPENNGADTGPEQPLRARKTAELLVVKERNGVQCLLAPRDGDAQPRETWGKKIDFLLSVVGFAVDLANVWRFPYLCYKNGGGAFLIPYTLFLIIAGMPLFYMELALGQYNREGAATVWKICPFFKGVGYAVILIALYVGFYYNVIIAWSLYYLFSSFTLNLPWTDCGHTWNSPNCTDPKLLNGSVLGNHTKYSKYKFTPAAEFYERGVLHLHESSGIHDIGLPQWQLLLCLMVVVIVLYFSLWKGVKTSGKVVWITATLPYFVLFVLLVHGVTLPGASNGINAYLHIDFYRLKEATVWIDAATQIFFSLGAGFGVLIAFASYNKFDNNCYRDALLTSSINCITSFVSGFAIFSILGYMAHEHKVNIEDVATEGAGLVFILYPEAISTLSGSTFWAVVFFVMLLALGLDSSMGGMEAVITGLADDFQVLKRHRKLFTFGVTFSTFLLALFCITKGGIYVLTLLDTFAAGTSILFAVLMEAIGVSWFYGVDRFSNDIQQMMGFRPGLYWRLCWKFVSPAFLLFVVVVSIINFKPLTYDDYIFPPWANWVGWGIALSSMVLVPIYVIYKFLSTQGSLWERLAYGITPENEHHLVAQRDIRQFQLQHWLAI
Sequence of C-C chemokine receptor type 5 (P51681 whole entry): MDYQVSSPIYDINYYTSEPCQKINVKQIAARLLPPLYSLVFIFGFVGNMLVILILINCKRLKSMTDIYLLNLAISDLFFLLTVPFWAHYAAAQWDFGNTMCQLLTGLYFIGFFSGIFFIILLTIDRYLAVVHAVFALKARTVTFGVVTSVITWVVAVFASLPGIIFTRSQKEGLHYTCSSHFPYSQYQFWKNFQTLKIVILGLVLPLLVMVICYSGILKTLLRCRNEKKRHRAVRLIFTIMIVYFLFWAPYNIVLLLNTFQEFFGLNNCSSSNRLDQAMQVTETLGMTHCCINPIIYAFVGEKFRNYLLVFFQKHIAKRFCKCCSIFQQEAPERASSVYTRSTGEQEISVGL

By IC50 is commonly meant the concentration that gives 50% inhibition. The Ki is a dissociation constant, usually derived from enzyme kinetics or from competition with a known ligand. On to `Nn1nnc2ccccc21`, for which the IC50 result (in test [1]; in test [2]; in test [3]; in test [4]; at D(4) dopamine receptor; on Estrogen receptor beta) was “Not Active” in each case. Further, the IC50 entry in test [5] (mdck) was “Not Active”. Besides, the Ki result in test [1], in test [2] and in test [4] was “Not Active” each time.
For `CC[C@]1(O)CC[C@H]2[C@@H]3CCC4=CCCC[C@@H]4[C@H]3CC[C@@]21C`, the half-maximal inhibitory concentration (IC50) entry (in test [1]; in test [2]; in test [3]; in test [4]; at D(4) dopamine receptor; against Estrogen receptor beta) was “Not Active” throughout. Moreover, the IC50 in test [5] (read-out: IC50) is 2100 nM. Besides, the Ki result in test [1] is “Not Active”; in test [2] it was “Not Active”; in test [4] it was “Not Active”; in test [5], 2080 nM.
Take `N[C@@H](Cc1ccc(F)cc1)C(=O)O`: the IC50 result (in test [1]; in test [2]; in test [3]; in test [4]; on D(4) dopamine receptor; at Estrogen receptor beta) was “Not Active” in each case. Besides, the IC50 entry in test [5] (mdck) is listed as “Not Active”. The inhibitory constant (Ki) entry in test [1], in test [2] and in test [4] was “Not Active” each time.
Consider `CCOC(=O)[C@H](CCc1ccccc1)N[C@@H](C)C(=O)N1Cc2ccccc2C[C@H]1C(=O)O`, for which the IC50 entry (in test [1]; in test [2]; in test [3]; in test [4]; at D(4) dopamine receptor; at Estrogen receptor beta) was “Not Active” in each case. Besides, the IC50 entry in test [5] (mdck) is on record as “Not Active”. In addition, the inhibition constant (Ki) entry in test [1], in test [2] and in test [4] was “Not Active” throughout.
In the case of `O=C(c1ccccc1Cl)N1CCC(Cc2ccccc2)CC1`, the IC50 entry (in test [1]; in test [2]; in test [3]; in test [4]; on D(4) dopamine receptor; against Estrogen receptor beta) was “Not Active” each time. In addition, in test [5] (mdck), the IC50 result is given as “Not Active”. In addition, the Ki result in test [1], in test [2] and in test [4] was “Not Active” each time.
On to `Clc1cc2c(cc1Cl)Oc1cc(Cl)c(Cl)cc1O2` [2,3,7,8-TETRACHLORODIBENZO-P-DIOXIN], for which the IC50 entry (in test [1]; in test [2]; in test [3]; in test [4]; at D(4) dopamine receptor; on Estrogen receptor beta) was “Not Active” in each case. Also, the IC50 result in test [5] (mdck) is on record as “Not Active”. The Ki entry in test [1], in test [2] and in test [4] was “Not Active” throughout.
Turning to `CCCCCC[C@H]1C(=O)O[C@H](C)[C@H](NC(=O)c2cccc(NC=O)c2O)C(=O)O[C@@H](C)[C@@H]1OC(=O)CC(C)C` [ANTIMYCIN A], the IC50 entry (in test [1]; in test [2]; in test [3]; in test [4]; on D(4) dopamine receptor; against Estrogen receptor beta) was “Not Active” in each case. Moreover, the IC50 entry in test [5] (mdck) is “Not Active”. Moreover, the Ki entry in test [1], in test [2] and in test [4] was “Not Active” each time.
Consider `C[C@@H]1CC[C@H]2[C@@H](C)C(=O)O[C@@H]3O[C@@]4(C)CC[C@@H]1[C@]32OO4` [ARTEMISININ], for which the IC50 result (in test [1]; in test [2]; in test [3]; in test [4]; at D(4) dopamine receptor; against Estrogen receptor beta) was “Not Active” throughout. Also, the IC50 result in test [5] (mdck) is “Not Active”. Further, the Ki result in test [1], in test [2] and in test [4] was “Not Active” each time.
`CO[C@H]1[C@@H](O)[C@H](N)[C@@H](O[C@H]2O[C@H]([C@H](C)N)CC[C@H]2N)[C@H](O)[C@@H]1N(C)C(=O)CN` [ASTROMICIN]: the IC50 result (in test [1]; in test [2]; in test [3]; in test [4]; on D(4) dopamine receptor; at Estrogen receptor beta) was “Not Active” throughout. In addition, in test [5] (mdck), the 50% inhibitory concentration (IC50) result is given as “Not Active”. The Ki result in test [1], in test [2] and in test [4] was “Not Active” in each case.
Regarding `CC[C@H]1OC(=O)[C@H](C)[C@@H](O[C@H]2C[C@@](C)(OC)[C@@H](O)[C@H](C)O2)[C@H](C)[C@@H](O[C@@H]2O[C@H](C)C[C@H](N(C)C)[C@H]2O)[C@](C)(O)C[C@@H](C)CN(C)[C@H](C)[C@@H](O)[C@]1(C)O` [AZITHROMYCIN], the half-maximal inhibitory concentration (IC50) entry (in test [1]; in test [2]; in test [3]; in test [4]; on D(4) dopamine receptor; on Estrogen receptor beta) was “Not Active” each time. Also, the concentration for half-maximal inhibition (IC50) entry in test [5] (mdck) is on record as “Not Active”. Also, the Ki entry in test [1], in test [2] and in test [4] was “Not Active” each time.
In the case of `CC(C)(C)c1ccc(S(=O)(=O)/C=C/C#N)cc1` [BAY-11-7085], the IC50 entry (in test [1]; in test [2]; in test [3]; in test [4]; on D(4) dopamine receptor; against Estrogen receptor beta) was “Not Active” throughout. The 50% inhibitory concentration (IC50) result in test [5] (mdck) is “Not Active”. Moreover, the inhibition constant (Ki) result in test [1], in test [2] and in test [4] was “Not Active” in each case.
For the molecule `CCc1oc2ccccc2c1C(=O)c1cc(Br)c(O)c(Br)c1` [BENZBROMARONE], the 50% inhibitory concentration (IC50) result (in test [1]; in test [2]; in test [3]; in test [4]; at D(4) dopamine receptor; on Estrogen receptor beta) was “Not Active” throughout. Moreover, in test [5] (mdck), the IC50 result is “Not Active”. In addition, the Ki entry in test [1], in test [2] and in test [4] was “Not Active” each time.
As for `O=c1cc(-c2ccccc2)oc2ccc3ccccc3c12` [BETA-NAPHTHOFLAVONE], the IC50 result (in test [1]; in test [2]; in test [3]; in test [4]; at D(4) dopamine receptor; at Estrogen receptor beta) was “Not Active” in each case. Besides, the IC50 entry in test [5] (mdck) is listed as “Not Active”. Also, the Ki entry in test [1], in test [2] and in test [4] was “Not Active” each time.
Turning to `O=C(/C=C/c1ccc(O)c(O)c1)OCCc1ccccc1` [CAFFEIC ACID PHENETHYL ESTER], the IC50 result (in test [1]; in test [2]; in test [3]; in test [4]; at D(4) dopamine receptor; against Estrogen receptor beta) was “Not Active” in each case. Moreover, the IC50 in test [5] (read-out: IC50) stood at 3790 nM. Also, the Ki result in test [1] was “Not Active”; in test [2], “Not Active”; in test [4] it was “Not Active”; in test [5], 3760 nM.
In the case of `COc1cc(CNC(=O)CCCC/C=C/C(C)C)ccc1O` [CAPSAICIN], the IC50 entry (in test [1]; in test [2]; in test [3]; in test [4]; on D(4) dopamine receptor; at Estrogen receptor beta) was “Not Active” each time. In test [5] (mdck), the IC50 entry is recorded as “Not Active”. Besides, the Ki entry in test [1], in test [2] and in test [4] was “Not Active” each time.
With `NC(=O)N1c2ccccc2C=Cc2ccccc21` [CARBAMAZEPINE], the IC50 entry (in test [1]; in test [2]; in test [3]; in test [4]; on D(4) dopamine receptor; against Estrogen receptor beta) was “Not Active” in each case. Also, in test [5] (mdck), the concentration for half-maximal inhibition (IC50) entry was “Not Active”. For the same molecule, the Ki entry in test [1], in test [2] and in test [4] was “Not Active” throughout.
Turning to `CCOC(=O)n1ccn(C)c1=S` [CARBIMAZOLE], the IC50 result (in test [1]; in test [2]; in test [3]; in test [4]; at D(4) dopamine receptor; at Estrogen receptor beta) was “Not Active” in each case. The IC50 result in test [5] (mdck) is recorded as “Not Active”. For the same molecule, the inhibitory constant (Ki) result in test [1], in test [2] and in test [4] was “Not Active” in each case.
Consider `C[C@]12CCC(=O)C=C1CC[C@@H]1[C@@H]2[C@@H](O)C[C@@]2(C)[C@H]1CC[C@]2(O)C(=O)CO` [HYDROCORTISONE], for which the IC50 result (in test [1]; in test [2]; in test [3]; in test [4]; at D(4) dopamine receptor; at Estrogen receptor beta) was “Not Active” in each case. Also, the Ki result in test [1], in test [2] and in test [4] was “Not Active” in each case.

Source of the values: ChEMBL document CHEMBL1909046, “DrugMatrix in vitro pharmacology data”.
